Assay results from patent publication US9163021B2, “Pyrrolo[3,2-c]pyridine tropomyosin-related kinase inhibitors” (Pfizer Limited, priority 2012, dated 2015).

Molecular target: TRKA (Homo sapiens (Human), UniProt P04629)
Experiment: Isolated TRK enzyme assay (HTRF KinEASE-TK), PV3144 TrkA enzyme assay
Assay type: biochemical
Settings: arithmetic mean where more than one reading
How it was run: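 Kinase (recombinant His-TrkA cytoplasmic domain, ATP-preactivated 20 min) met compound 20 min, then biotinylated TK substrate (1 µM final) with Mg2+/DTT buffer; HTRF detection.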

Chain of TRKA (P04629 441-796): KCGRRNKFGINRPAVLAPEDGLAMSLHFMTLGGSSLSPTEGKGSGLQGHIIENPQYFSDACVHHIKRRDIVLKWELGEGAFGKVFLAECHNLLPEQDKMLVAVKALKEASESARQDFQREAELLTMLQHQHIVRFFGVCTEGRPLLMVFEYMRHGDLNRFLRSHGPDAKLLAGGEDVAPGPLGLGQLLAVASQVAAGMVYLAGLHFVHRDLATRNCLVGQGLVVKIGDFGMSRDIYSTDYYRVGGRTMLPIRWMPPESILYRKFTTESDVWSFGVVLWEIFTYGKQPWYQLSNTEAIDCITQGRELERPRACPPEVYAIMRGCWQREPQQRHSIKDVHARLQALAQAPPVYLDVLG

Molecule	IC50 [µM]
CC(C)n1cc(C(=O)c2ccnc(NC(=O)Cc3nc(C4CC4)oc3C3CC3)c2)c2cnccc21 [Example 79, 2-(2,5-dicyclopropyl-1,3-oxazol-4-yl)-N-(4-{[1-(propan-2-yl)-1H-pyrrolo[3,2-c]pyridin-3-yl]carbonyl}pyridin-2-yl)acetamide]	0.0261
CC(C)n1cc(C(=O)c2cncc(NC(=O)Cn3cc(C(F)(F)F)nn3)c2)c2cnccc21 [Example 38, N-(5-{[1-(propan-2-yl)-1H-pyrrolo[3,2-c]pyridin-3-yl]carbonyl}pyridin-3-yl)-2[4-(trifluoromethyl)-1H-1,2,3-triazol-1-yl]acetamide]	0.147
CC(CO)n1cc(C(=O)c2cc(NC(=O)Cc3ccc(Cl)cn3)ccn2)c2cnccc21 (single isomer, unassigned) [Example 17, 2-(5-chloropyridin-2-yl)-N-(2-{[1-(1-hydroxypropan-2-yl)-1H-pyrrolo[3,2-c]pyridin-3-yl]carbonyl}pyridin-4-yl)acetamide]	0.106
2-(2,5-dicyclopropyl-1,3-oxazol-4-yl)-N-(4-{[1-(oxetan-3-yl)-1H-pyrrolo[3,2-c]pyridin-3-yl]carbonyl}pyridin-2-yl)acetamide [Example 203]	0.0713
CC(C)n1cc(C(=O)c2cc(NC(=O)Cn3cc(C(F)(F)F)cn3)ccn2)c2cnccc21 [Example 30, N-(2-{[1-(propan-2-yl)-1H-pyrrolo[3,2-c]pyridin-3-yl]carbonyl}pyridin-4-yl)-2[4-(trifluoromethyl)-1H-pyrazol-1-yl]acetamide]	0.0133
CC(CO)n1cc(C(=O)c2cncc(NC(=O)Cc3ccc(F)cn3)c2)c2cnccc21 (single isomer, unassigned) [Example 74, 2-(5-fluoropyridin-2-yl)-N-(5-{[1-(1-hydroxypropan-2-yl)-1H-pyrrolo[3,2-c]pyridin-3-yl]carbonyl}pyridin-3-yl)acetamide]	0.233
Cc1nonc1CC(=O)Nc1cncc(C(=O)c2cn(C(C)C)c3ccncc23)c1 [Example 40, 2-(4-methyl-1,2,5-oxadiazol-3-yl)-N-(5-{[1-(propan-2-yl)-1H-pyrrolo[3,2-c]pyridin-3-yl]carbonyl}pyridin-3-yl)acetamide]	1.73
CC(CO)n1cc(C(=O)c2cncc(NC(=O)Cc3ccc(Cl)cn3)c2)c2cnccc21 (single isomer, unassigned) [Example 73, 2-(5-chloropyridin-2-yl)-N-(5-{[1-(1-hydroxypropan-2-yl)-1H-pyrrolo[3,2-c]pyridin-3-yl]carbonyl}pyridin-3-yl)acetamide]	0.0883
CC(C)n1cc(C(=O)c2cc(NC(=O)Cc3ccc(C#N)cc3)ccn2)c2cnccc21 [Example 54, 2-(4-cyanophenyl)-N-(2-{[1-(propan-2-yl)-1H-pyrrolo[3,2-c]pyridin-3-yl]carbonyl}pyridin-4-yl)acetamide]	0.176
COc1ccc(CC(=O)Nc2cc(C(=O)c3cn(C(C)C)c4ccncc34)ccn2)cc1 [Example 101, 2-(4-methoxyphenyl)-N-(4-{[1-(propan-2-yl)-1H-pyrrolo[3,2-c]pyridin-3-yl]carbonyl}pyridin-2-yl)acetamide]	0.0517
CC(C)n1cc(C(=O)c2ccnc(NC(=O)Cc3ccccc3Cl)c2)c2cnccc21 [Example 105, 2-(2-chlorophenyl)-N-(4-{[1-(propan-2-yl)-1H-pyrrolo[3,2-c]pyridin-3-yl]carbonyl}pyridin-2-yl)acetamide]	0.108
CC(CO)n1cc(C(=O)c2cc(NC(=O)Cc3ccc(C(F)(F)F)cc3)ccn2)c2cnccc21 (stereo not drawn) [Example 230, N-(2-{[1-(1-hydroxypropan-2-yl)-1H-pyrrolo[3,2-c]pyridin-3-yl]carbonyl}pyridin-4-yl)-2-[4-(trifluoromethyl)phenyl]acetamide]	0.0181
CC(C)n1cc(C(=O)c2cncc(NC(=O)Cn3cc(C4CC4)cn3)c2)c2cncc(F)c21 [Example 91, 2-(4-cyclopropyl-1H-pyrazol-1-yl)-N-(5-{[7-fluoro-1-(propan-2-yl)-1H-pyrrolo[3,2-c]pyridin-3-yl]carbonyl}pyridin-3-yl)acetamide]	0.015
CC(C)n1cc(C(=O)c2cncc(NC(=O)Cn3cc(C4CC4)nn3)c2)c2cnccc21 [Example 51, 2-(4-cyclopropyl-1H-1,2,3-triazol-1-yl)-N-(5-{[1-(propan-2-yl)-1H-pyrrolo[3,2-c]pyridin-3-yl]carbonyl}pyridin-3-yl)acetamide]	0.0682
Cc1oc(C2CC2)nc1CC(=O)Nc1cc(C(=O)c2cn(C(C)C)c3ccncc23)ccn1 [Example 78, 2-(2-cyclopropyl-5-methyl-1,3-oxazol-4-yl)-N-(4-{[1-(propan-2-yl)-1H-pyrrolo[3,2-c]pyridin-3-yl]carbonyl}pyridin-2-yl)acetamide]	0.0158

Results, then the molecule that gave them:

IC50 [µM]	Molecule
0.289	Cc1cn(CC(=O)Nc2cc(C(=O)c3cn(C(C)C)c4ccncc34)ccn2)nn1 [Example 114, 2-(4-methyl-1H-1,2,3-triazol-1-yl)-N-(4-{[1-(propan-2-yl)-1H-pyrrolo[3,2-c]pyridin-3-yl]carbonyl}pyridin-2-yl)acetamide]
0.0165	CC(C)(CO)n1cc(C(=O)c2cc(NC(=O)Cn3ccc(C4CC4)n3)ccn2)c2cnccc21 [Example 234, 2-(3-cyclopropyl-1H-pyrazol-1-yl)-N-(2-{[1-(1-hydroxy-2-methylpropan-2-yl)-1H-pyrrolo[3,2-c]pyridin-3-yl]carbonyl}pyridin-4-yl)acetamide]
0.0933	CC(CO)n1cc(C(=O)c2cncc(NC(=O)Cc3ccc(Cl)cn3)c2)c2cncc(F)c21 (single isomer, unassigned) [Example 211, 2-(5-chloropyridin-2-yl)-N-(5-{[7-fluoro-1-(1-hydroxypropan-2-yl)-1H-pyrrolo[3,2-c]pyridin-3-yl]carbonyl}pyridin-3-yl)acetamide]
0.0286	CC(C)n1cc(C(=O)c2cncc(NC(=O)Cc3cccc(Cl)c3)c2)c2cnccc21 [Example 126, 2-(3-chlorophenyl)-N-(5-{[1-(propan-2-yl)-1H-pyrrolo[3,2-c]pyridin-3-yl]carbonyl}pyridin-3-yl)acetamide]
0.181	Cc1nc(C)c(CC(=O)Nc2cc(C(=O)c3cn(C(C)C)c4ccncc34)ccn2)s1 [Example 167, 2-(2,4-dimethyl-1,3-thiazol-5-yl)-N-(4-{[1-(propan-2-yl)-1H-pyrrolo[3,2-c]pyridin-3-yl]carbonyl}pyridin-2-yl)acetamide]
0.314	CC(C)n1ncc(CC(=O)Nc2cc(C(=O)c3cn(C4COC4)c4ccncc34)ccn2)c1C(F)(F)F [Example 201]
0.0107	CC(C)n1cc(C(=O)c2ccnc(NC(=O)Cn3cc(C(F)(F)F)nn3)c2)c2cnccc21 [Example 163, N-(4-{[1-(propan-2-yl)-1H-pyrrolo[3,2-c]pyridin-3-yl]carbonyl}pyridin-2-yl)-2-[4-(trifluoromethyl)-1H-1,2,3-triazol-1-yl]acetamide]
0.033	O=C(Nc1cc(C(=O)c2cn(C3COC3)c3ccncc23)ccn1)c1cccc(OC(F)(F)F)c1 [Example 205, N-(4-{[1-(oxetan-3-yl)-1H-pyrrolo[3,2-c]pyridin-3-yl]carbonyl}pyridin-2-yl)-3-(trifluoromethoxy)benzamide]
9.8	Cc1nc(C)n(CC(=O)Nc2cncc(C(=O)c3cn(C(C)C)c4ccncc34)c2)n1 [Example 137, 2-(3,5-dimethyl-1H-1,2,4-triazol-1-yl)-N-(5-{[1-(propan-2-yl)-1H-pyrrolo[3,2-c]pyridin-3-yl]carbonyl}pyridin-3-yl)acetamide]
0.0185	Cc1cc(C(F)(F)F)nn1CC(=O)Nc1cncc(C(=O)c2cn(C(C)CO)c3c(F)cncc23)c1 (single isomer, unassigned) [Example 228, N-(5-{[7-fluoro-1-(1-hydroxypropan-2-yl)-1H-pyrrolo[3,2-c]pyridin-3-yl]carbonyl}pyridin-3-yl)-2-[5-methyl-3-(trifluoromethyl)-1H-pyrazol-1-yl]acetamide]
10.1	CC(C)n1cc(C(=O)c2ccnc(NC(=O)Cn3cncn3)c2)c2cnccc21 [Example 193, N-(4-{[1-(propan-2-yl)-1H-pyrrolo[3,2-c]pyridin-3-yl]carbonyl}pyridin-2-yl)-2-(1H-1,2,4-triazol-1-yl)acetamide]
3.08	Cc1ccn(CC(=O)Nc2cc(C(=O)c3cn(CCO)c4ccncc34)ccn2)n1 [Example 150, N-(4-{[1-(2-hydroxyethyl)-1H-pyrrolo[3,2-c]pyridin-3-yl]carbonyl}pyridin-2-yl)-2-(3-methyl-1H-pyrazol-1-yl)acetamide]
0.147	COc1ccc(CC(=O)Nc2cncc(C(=O)c3cn(C(C)C)c4ccncc34)c2)cc1 [Example 128, 2-(4-methoxyphenyl)-N-(5-{[1-(propan-2-yl)-1H-pyrrolo[3,2-c]pyridin-3-yl]carbonyl}pyridin-3-yl)acetamide]
6.51	CC(C)n1cc(C(=O)c2ccnc(NC(=O)Cn3cnnn3)c2)c2cnccc21 [Example 170, N-(4-{[1-(propan-2-yl)-1H-pyrrolo[3,2-c]pyridin-3-yl]carbonyl}pyridin-2-yl)-2(1H-tetrazol-1-yl)acetamide]
0.00287	CC(C)(CO)n1cc(C(=O)c2cncc(NC(=O)Cc3cccc(C(F)(F)F)c3)c2)c2cnccc21 [Example 235, N-(5-{[1-(1-hydroxy-2-methylpropan-2-yl)-1H-pyrrolo[3,2-c]pyridin-3-yl]carbonyl}pyridin-3-yl)-2-[3-(trifluoromethyl)phenyl]acetamide]
0.955	CC(C)n1cc(C(=O)c2ccnc(NC(=O)Cn3cccn3)c2)c2cnccc21 [Example 166, N-(4-{[1-(propan-2-yl)-1H-pyrrolo[3,2-c]pyridin-3-yl]carbonyl}pyridin-2-yl)-2-(1H-pyrazol-1-yl)acetamide]
0.477	CC(C)n1cc(C(=O)c2ccnc(NC(=O)Cn3cc(C(C)(C)O)nn3)c2)c2cnccc21 [Example 188]
0.064	CC(C)n1cc(C(=O)c2ccnc(NC(=O)Cc3ccccc3)c2)c2cnccc21 [Example 107, 2-phenyl-N-(4-{[1-(propan-2-yl)-1H-pyrrolo[3,2-c]pyridin-3-yl]carbonyl}pyridin-2-yl)acetamide]
